Common to all, as to assay type: cell-based
One assay has as its target T1, human GIP R (Homo sapiens, UniProt P48546).
T1 construct: expressed in transfected cells
T1 sequence (P48546 22-466): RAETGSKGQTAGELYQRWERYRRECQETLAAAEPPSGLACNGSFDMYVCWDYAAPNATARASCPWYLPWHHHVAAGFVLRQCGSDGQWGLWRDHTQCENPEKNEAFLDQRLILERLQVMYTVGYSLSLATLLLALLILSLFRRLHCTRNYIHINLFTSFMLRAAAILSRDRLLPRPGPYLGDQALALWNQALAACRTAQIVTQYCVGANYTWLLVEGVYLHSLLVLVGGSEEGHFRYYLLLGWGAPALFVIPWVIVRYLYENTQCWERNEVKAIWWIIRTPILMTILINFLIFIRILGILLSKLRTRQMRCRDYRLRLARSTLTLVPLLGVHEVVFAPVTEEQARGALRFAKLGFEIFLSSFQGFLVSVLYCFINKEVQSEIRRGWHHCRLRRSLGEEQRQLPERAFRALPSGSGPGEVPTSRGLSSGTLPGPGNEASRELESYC
Put plainly: cAMP induction in HEK293 cells expressing human GIP R (AlphaScreen cAMP kit). (Bead proximity is the source of the signal in Alpha formats.)

A further assay has as its target T2, human GLP-1 R (Homo sapiens, UniProt P43220).
T2 construct: expressed in transfected cells
Put plainly: cAMP induction in HEK293 cells expressing human GLP-1 R (AlphaScreen cAMP kit). To be noted: average EC50, cAMP, HEK293 cells expressing human GLP-1 R, read-out: GLP1 R (EC50 in nM).

A further assay has as its target T3, human GCG R (Homo sapiens, UniProt P47871).
T3 construct: expressed in transfected cells
Put plainly: cAMP induction in HEK293 cells expressing human GCG R (AlphaScreen cAMP kit).

[1] abbreviates: GIP R (EC50 in nM), Table 2, average EC50, cAMP.
Where [2] appears, read: GIP R (EC50 in nM), Table 2b (most comprehensive data), average EC50, cAMP.
Setting [3] is: Table 2b (most comprehensive data), average EC50, cAMP, read-out: GIP R (EC50 in nM).
Setting [4] is: Table 2b (most comprehensive data).
Where [5] appears, read: Table 2, average EC50, cAMP, read-out: GIP R (EC50 in nM).
Where [6] appears, read: Table 2, average EC50, cAMP, HEK293 cells expressing human GCG R, read-out: GCG R (EC50 in nM).

SMILES strings stand for the structures. Where two headings read alike, the source gives them in different places. Numbered stars: 1 amine (or outer) side, 2 acyl side, 3 side chain; on linkers, the order of the positions; unused ones are H or OH. Square brackets hold non-standard residues; d marks the D form. Side chains are listed from the residue outwards. Peptide text beside a SMILES is read from it. * marks the point of attachment. C18 diacid = O=C(O)CCCCCCCCCCCCCCCCC(=O)*; γGlu = O=C(O)[C@H](CCC(=O)[*:2])N[*:1]; AEEA = NCCOCCOCC(=O)O; Aib = CC(C)(N)C(=O)O

T3 sequence (P47871 26-477): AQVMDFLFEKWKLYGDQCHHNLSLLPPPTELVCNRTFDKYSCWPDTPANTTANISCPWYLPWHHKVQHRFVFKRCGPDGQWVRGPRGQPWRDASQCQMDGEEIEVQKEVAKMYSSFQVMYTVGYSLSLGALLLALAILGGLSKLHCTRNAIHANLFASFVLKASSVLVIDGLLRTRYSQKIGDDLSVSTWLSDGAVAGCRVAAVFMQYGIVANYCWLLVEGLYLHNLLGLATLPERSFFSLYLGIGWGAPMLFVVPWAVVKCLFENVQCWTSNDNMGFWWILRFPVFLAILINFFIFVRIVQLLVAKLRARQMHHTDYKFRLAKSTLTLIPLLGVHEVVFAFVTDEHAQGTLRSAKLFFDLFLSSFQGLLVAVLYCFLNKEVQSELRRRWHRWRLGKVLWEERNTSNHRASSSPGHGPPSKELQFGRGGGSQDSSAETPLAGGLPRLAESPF
T2 sequence (P43220 24-463): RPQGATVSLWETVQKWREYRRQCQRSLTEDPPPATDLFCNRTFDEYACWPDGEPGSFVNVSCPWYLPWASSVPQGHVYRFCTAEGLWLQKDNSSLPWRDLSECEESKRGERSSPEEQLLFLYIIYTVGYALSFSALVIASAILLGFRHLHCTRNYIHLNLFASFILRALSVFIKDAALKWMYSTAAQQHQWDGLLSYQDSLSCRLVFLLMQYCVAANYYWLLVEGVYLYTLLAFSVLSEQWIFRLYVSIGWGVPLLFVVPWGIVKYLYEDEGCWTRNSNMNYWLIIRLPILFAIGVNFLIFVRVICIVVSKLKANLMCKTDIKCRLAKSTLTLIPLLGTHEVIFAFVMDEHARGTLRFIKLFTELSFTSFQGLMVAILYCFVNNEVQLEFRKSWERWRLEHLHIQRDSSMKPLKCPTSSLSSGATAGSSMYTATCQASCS
Description for human GCG R: (§1) Briefly, HEK293 cells expressing the human GIP R, GLP-1 R or GCG R (stable cell lines generated through transfection of the cDNA for human GIP R, GLP-1 R or GCG R and selection of stable clones) were seeded at 30,000 cells/well in 96-well microtiter plates coated with 0.01% poly-L-lysine, and grown for 1 day in culture in 200 μl growth medium (DMEM, 10% FCS, Penicillin (100 IU/ml), Streptomycin (100 μg/ml)). On the day of analysis, growth medium was removed and the cells were washed once with 150 μl Tyrode's buffer (Tyrode's Salts (9.6 g/l), 10 mM HEPES, pH 7.4). […] The Assay buffer was removed and cells are lysed in 80 μl Lysis buffer (0.1% w/v BSA, 5 mM HEPES, 0.3% v/v Tween-20) per well. From each well 10 μl of lysed cells were transferred to a 384-well plate and mixed with 15 μl bead-mix (1 Unit/15 μl anti-cAMP Acceptor Beads, 1 Unit/15 μl Donor Beads, and 1 Unit/15 μl Biotinylated cAMP in Assay Buffer). The plates were mixed and incubated in the dark for an hour at room temperature before measuring using an Envision™ plate reader (Perkin-Elmer).
(§2) The resulting cAMP curves were plotted as absolute cAMP concentrations (nM) over log (test compound concentration) and analyzed using the curve fitting program XLfit.
(§3) Parameters calculated to describe both the potency as well as the agonistic activity of each test compound on the receptors were:
(§4) EC50, a concentration resulting in a half-maximal elevation of cAMP levels, reflecting the potency of the test compound.
Description for human GIP R: as §1, §2, §3, §4

In the case of `CC[C@H](C)[C@H](NC(=O)[C@H](CO)NC(=O)[C@H](Cc1ccc(O)cc1)NC(=O)[C@H](CC(=O)O)NC(=O)[C@H](CO)NC(=O)[C@@H](NC(=O)[C@H](Cc1ccccc1)NC(=O)[C@@H](NC(=O)CNC(=O)[C@H](CCC(N)=O)NC(=O)C(C)(C)NC(=O)[C@@H](N)Cc1ccc(O)cc1)[C@@H](C)O)[C@@H](C)O)C(=O)N[C@@H](Cc1ccc(O)cc1)C(=O)N[C@@H](CC(C)C)C(=O)N[C@@H](CC(=O)O)C(=O)N[C@@H](CO)C(=O)N[C@@H](CCCCN)C(=O)N[C@@H](C)C(=O)N[C@@H](C)C(=O)N[C@@H](Cc1c[nH]cn1)C(=O)N[C@@H](CC(=O)O)C(=O)N[C@@H](Cc1ccccc1)C(=O)N[C@H](C(=O)N[C@@H](CCC(=O)O)C(=O)N[C@@H](Cc1c[nH]c2ccccc12)C(=O)N[C@@H](CC(C)C)C(=O)N[C@@H](CC(C)C)C(=O)N[C@@H](CCCNC(=N)N)C(=O)N[C@@H](C)C(N)=O)C(C)C` [Compound 12] (HELM PEPTIDE1{Y.[Aib].Q.G.T.F.T.S.D.Y.S.I.Y.L.D.S.K.A.A.H.D.F.V.E.W.L.L.R.A.[am]}$$$$V2.0), the EC50 at human GIP R (setting [1]) was 0.084 nM; at human GIP R (setting [2]), 0.012 nM; on human GLP-1 R (Table 2) it was 0.012 nM; on human GCG R, 0.076 nM.

Take `CC[C@H](C)[C@H](NC(=O)[C@H](CO)NC(=O)[C@H](Cc1ccc(O)cc1)NC(=O)[C@H](CC(=O)O)NC(=O)[C@H](CO)NC(=O)[C@@H](NC(=O)[C@H](Cc1ccccc1)NC(=O)[C@@H](NC(=O)CNC(=O)[C@H](CCC(N)=O)NC(=O)C(C)(C)NC(=O)[C@@H](N)Cc1ccc(O)cc1)[C@@H](C)O)[C@@H](C)O)C(=O)N[C@@H](Cc1ccc(O)cc1)C(=O)N[C@@H](CC(C)C)C(=O)N[C@@H](CC(=O)O)C(=O)N[C@@H](CCCCN)C(=O)N[C@@H](CCCCNC(=O)COCCOCCNC(=O)COCCOCCNC(=O)CC[C@H](NC(=O)CCCCCCCCCCCCCCCCC(=O)O)C(=O)O)C(=O)N[C@@H](C)C(=O)N[C@@H](CCC(N)=O)C(=O)N[C@@H](CCCNC(=N)N)C(=O)N[C@@H](C)C(=O)N[C@@H](Cc1ccccc1)C(=O)N[C@H](C(=O)N[C@@H](CCC(=O)O)C(=O)N[C@@H](Cc1c[nH]c2ccccc12)C(=O)N[C@@H](CC(C)C)C(=O)N[C@@H](CC(C)C)C(=O)N[C@@H](C)C(=O)N[C@@H](CCC(N)=O)C(=O)NCC(=O)N1CCC[C@H]1C(=O)N[C@@H](CO)C(=O)N[C@@H](CO)C(=O)NCC(=O)N[C@@H](C)C(=O)N1CCC[C@H]1C(=O)N1CCC[C@H]1C(=O)N1CCC[C@H]1C(=O)N[C@@H](CO)C(N)=O)C(C)C` [Compound 33] (H-Y[Aib]QGTFTSDYSIYLDKK([AEEA-AEEA-γGlu-C18 diacid])AQRAFVEWLLAQGPSSGAPPPS-NH2): the 50% effective concentration (EC50) was found to be 0.009 nM at human GIP R (setting [3]); 0.114 nM at human GLP-1 R (setting [4]); 0.58 nM on human GCG R (Table 2b (most comprehensive data), average EC50, cAMP, HEK293 cells expressing human GCG R, read-out: GCG R (EC50 in nM)).

For `CC[C@H](C)[C@H](NC(=O)[C@H](CO)NC(=O)[C@H](Cc1ccc(O)cc1)NC(=O)[C@H](CC(=O)O)NC(=O)[C@H](CO)NC(=O)[C@@H](NC(=O)[C@H](Cc1ccccc1)NC(=O)[C@@H](NC(=O)CNC(=O)[C@H](CCC(N)=O)NC(=O)C(C)(C)NC(=O)[C@@H](N)Cc1ccc(O)cc1)[C@@H](C)O)[C@@H](C)O)C(=O)N[C@@H](Cc1ccc(O)cc1)C(=O)N[C@@H](CC(C)C)C(=O)N[C@@H](CC(=O)O)C(=O)N[C@@H](CO)C(=O)N[C@@H](CCCCN)C(=O)N[C@@H](C)C(=O)N[C@@H](C)C(=O)N[C@@H](Cc1c[nH]cn1)C(=O)N[C@@H](CC(=O)O)C(=O)N[C@@H](Cc1ccccc1)C(=O)N[C@H](C(=O)N[C@@H](CCC(=O)O)C(=O)N[C@@H](Cc1c[nH]c2ccccc12)C(=O)N[C@@H](CC(C)C)C(=O)N[C@@H](CC(C)C)C(=O)N[C@@H](CO)C(=O)N[C@@H](C)C(=O)NCC(=O)N1CCC[C@H]1C(=O)N[C@@H](CO)C(=O)N[C@@H](CO)C(=O)NCC(=O)N[C@@H](C)C(=O)N1CCC[C@H]1C(=O)N1CCC[C@H]1C(=O)N1CCC[C@H]1C(=O)N[C@@H](CO)C(N)=O)C(C)C` [Compound 13] (HELM PEPTIDE1{Y.[Aib].Q.G.T.F.T.S.D.Y.S.I.Y.L.D.S.K.A.A.H.D.F.V.E.W.L.L.S.A.G.P.S.S.G.A.P.P.P.S.[am]}$$$$V2.0), the EC50 at human GIP R (setting [5]) was found to be 0.083 nM; on human GIP R (setting [3]), 0.01 nM; on human GLP-1 R (Table 2), 0.0099 nM; on human GCG R (setting [6]), 0.24 nM.

As for `CC[C@H](C)[C@H](NC(=O)[C@H](CO)NC(=O)[C@H](Cc1ccc(O)cc1)NC(=O)[C@H](CC(=O)O)NC(=O)[C@H](CO)NC(=O)[C@@H](NC(=O)[C@H](Cc1ccccc1)NC(=O)[C@@H](NC(=O)CNC(=O)[C@H](CCC(N)=O)NC(=O)C(C)(C)NC(=O)[C@@H](N)Cc1ccc(O)cc1)[C@@H](C)O)[C@@H](C)O)C(=O)N[C@@H](Cc1ccc(O)cc1)C(=O)N[C@@H](CC(C)C)C(=O)N[C@@H](CC(=O)O)C(=O)N[C@@H](CCC(=O)O)C(=O)N[C@@H](CCCCN)C(=O)N[C@@H](C)C(=O)N[C@@H](C)C(=O)N[C@@H](Cc1c[nH]cn1)C(=O)N[C@@H](CC(=O)O)C(=O)N[C@@H](Cc1ccccc1)C(=O)N[C@H](C(=O)N[C@@H](CCC(=O)O)C(=O)N[C@@H](Cc1c[nH]c2ccccc12)C(=O)N[C@@H](CC(C)C)C(=O)N[C@@H](CC(C)C)C(=O)N[C@@H](CO)C(=O)N[C@@H](C)C(N)=O)C(C)C` [Compound 9] (HELM PEPTIDE1{Y.[Aib].Q.G.T.F.T.S.D.Y.S.I.Y.L.D.E.K.A.A.H.D.F.V.E.W.L.L.S.A.[am]}$$$$V2.0), the values for the EC50 on human GIP R (setting [1]), on human GLP-1 R (Table 2) and on human GCG R were 0.056 nM, 0.0055 nM and 0.097 nM, respectively.

Regarding `CC(C)C[C@H](NC(=O)[C@H](CC(C)C)NC(=O)[C@H](Cc1c[nH]c2ccccc12)NC(=O)[C@H](CCC(=O)O)NC(=O)[C@@H](NC(=O)[C@H](Cc1ccccc1)NC(=O)[C@H](CC(=O)O)NC(=O)[C@H](CCCNC(=N)N)NC(=O)[C@H](C)NC(=O)[C@H](C)NC(=O)[C@H](CCCCN)NC(=O)[C@H](CO)NC(=O)[C@H](CC(=O)O)NC(=O)[C@H](CC(C)C)NC(=O)[C@H](Cc1ccc(O)cc1)NC(=O)[C@H](CCCCN)NC(=O)[C@H](CO)NC(=O)[C@H](Cc1ccc(O)cc1)NC(=O)[C@H](CC(=O)O)NC(=O)[C@H](CO)NC(=O)[C@@H](NC(=O)[C@H](Cc1ccccc1)NC(=O)[C@@H](NC(=O)CNC(=O)[C@H](CCC(N)=O)NC(=O)C(C)(C)NC(=O)[C@@H](N)Cc1ccc(O)cc1)[C@@H](C)O)[C@@H](C)O)C(C)C)C(=O)N[C@@H](CO)C(=O)N[C@@H](C)C(N)=O` [Compound 6] (HELM PEPTIDE1{Y.[Aib].Q.G.T.F.T.S.D.Y.S.K.Y.L.D.S.K.A.A.R.D.F.V.E.W.L.L.S.A.[am]}$$$$V2.0), the EC50 was 0.34 nM on human GIP R (setting [1]), 0.01 nM at human GIP R (setting [2]), 0.0095 nM at human GLP-1 R (Table 2) and 0.018 nM on human GCG R.

As to `CCCCCCCCCCCCCCCC(=O)N[C@@H](CCC(=O)NCCCC[C@H](NC(=O)[C@H](CO)NC(=O)[C@H](CC(=O)O)NC(=O)[C@H](CC(C)C)NC(=O)[C@H](Cc1ccc(O)cc1)NC(=O)[C@@H](NC(=O)[C@H](CO)NC(=O)[C@H](Cc1ccc(O)cc1)NC(=O)[C@H](CC(=O)O)NC(=O)[C@H](CO)NC(=O)[C@@H](NC(=O)[C@H](Cc1ccccc1)NC(=O)[C@@H](NC(=O)CNC(=O)[C@H](CCC(N)=O)NC(=O)C(C)(C)NC(=O)[C@@H](N)Cc1ccc(O)cc1)[C@@H](C)O)[C@@H](C)O)[C@@H](C)CC)C(=O)N[C@@H](C)C(=O)N[C@@H](C)C(=O)N[C@@H](Cc1c[nH]cn1)C(=O)N[C@@H](CC(=O)O)C(=O)N[C@@H](Cc1ccccc1)C(=O)N[C@H](C(=O)N[C@@H](CCC(=O)O)C(=O)N[C@@H](Cc1c[nH]c2ccccc12)C(=O)N[C@@H](CC(C)C)C(=O)N[C@@H](CC(C)C)C(=O)N[C@@H](CCCNC(=N)N)C(=O)N[C@@H](C)C(N)=O)C(C)C)C(=O)O` [Compound 27] (HELM PEPTIDE1{Y.[Aib].Q.G.T.F.T.S.D.Y.S.I.Y.L.D.S.K.A.A.H.D.F.V.E.W.L.L.R.A.[am]}|PEPTIDE2{[CCCCCCCCCCCCCCCC(=O)[*:2]].[gGlu]}$PEPTIDE1,PEPTIDE2,17:R3-2:R2$$$V2.0), the EC50 on human GIP R (setting [5]) is 0.12 nM; on human GIP R (setting [3]), 0.16 nM; on human GLP-1 R (Table 2) it was 0.16 nM; on human GLP-1 R (setting [4]), 0.07 nM; on human GCG R (setting [6]) it was 0.07 nM.

Broadly, the EC50 is the concentration at which the effect is half-maximal.

These data come from patent US10131702B2, “Glucagon-GLP-1-GIP triple agonist compounds” (priority 2013, dated 2018).
